Experimental data: patent EP1013282A2, “Pharmaceutical and foodstuff compositions containing transferrins and antibacteral agents for potentiating host defence activity and the treatment of infections” (priority 1992, dated 1993)

Key:
Escherichia coli c 11 [1] = experiment: Intraperitoneal E. coli infection in mice: other chemotherapies with or without lactoferrin (Example 5); assay type: in vivo; details: for ED50: gentamicin subcutaneous, ddY mice n=6; for potentiation of efficacy of the chemotherapy by lactoferrin: lactoferrin 0.5 mg/mouse oral, in vivo
Excerpt: Example 5-The antimicrobial activities of chemotherapies were compared with or without lactoferrin treatment. The antimicrobial agents used were new quinolones, aminoglycoside antibiotic, gentamicin, erythromycin, chloramphenicol and minocycline. The efficacy was compared between the controls and lactoferrin groups. Mice strain ddY, four weeks old, were randomly allocated into groups (n=6) and intraperitoneally infected with Escherichia coli c 11 at a dose of 1 x 10^6 cells per mouse. One hour after the injection the chemotherapies and lactoferrin (0.5 mg/mouse) were simultaneously given orally except gentamicin was given subcutaneously since it is unabsorable from the intestinal tract. Evaluation of potentiation of the chemotherapies by lactoferrin is the same as described above. […]

Proteus vulgaris OX.8 = experiment: Intraperitoneal Proteus vulgaris infection in mice: oral β-lactam with or without oral lactoferrin (Example 4); assay type: in vivo; details: for ED50: ddY mice n=6, survivors at one week; for simultaneous administration with lactoferrin reduced the ED50s to: fraction of ED50 of antibiotic alone, lactoferrin 0.5 mg/mouse
Experimental: Example 4-The efficacy potentiation of lactoferrin was examined using mice infected with Proteus vulgaris OX.8. Each group of six mice, strain ddY, four weeks old, were intraperitoneally infected with P. vulgaris suspended in 3% gastric mucin at a dose of 2 x 10^6 cells per mouse. One hour after the injection, lactoferrin (0.5 mg/mouse) was orally given simultaneously with cephalosporins. […]
Consequently, the efficacy potentiation of cephalosporin due to simultaneous treatment with lactoferrin is not restricted merely to the pathogens belonging to the genus Escherichia and Klebsiella, but also includes Proteus.

[2] = system: Proteus mirabilis strain 1287; experiment: Upper urinary tract infection in mice, kidney colony count (Example 9); assay type: in vivo; details: for colony count ratio, lactoferrin (+) to (-): Lactoferrin (+) relative to Lactoferrin (-)
Excerpt: Example 9-Male ICR mice, five weeks old, were dehydrated overnight, and Proteus mirabilis strain 1287 was inoculated into the bladder at a dose of 2 x 10^5 CFU per mouse. In order for the pathogen to colonize the kidneys, the urethra was closed by a clip for four hours. Ampicillin was orally given to the mice twice daily (10:00 am and 7:00 pm) for two consecutive days with or without oral lactoferrin therapy. On day 3 all mice were sacrificed and the kidneys were dissected ascetically. The kidneys were homogenized in sterile saline and the homogenate was spread over nutrient agar plates to determine the numbers of colonizing bacteria. […]

[3] = system: Escherichia coli strain c-11; experiment: Intraperitoneal E. coli infection in mice: oral cephalosporin with or without oral lactoferrin (Example 3); assay type: in vivo; details: for ED50: ddY mice n=6, survivors at one week; for ED50s reduced by simultaneous administration of lactoferrin to: fraction of ED50 of antibiotic alone, lactoferrin 1 mg/mouse
Experimental: Example 3-groups of six male mice strain ddY, four weeks old, were used in this experiment. They were intraperitoneally infected with 3% mucin suspension of Escherichia coli strain c-11 at a dose of 1 X 10^6 cells per mouse. Oral cephalosporin antibiotic was administered one hour after the injection simultaneously with bovine milk lactoferrin (26% iron saturation), 1 mg/mouse. Each control was given cephalosporin alone. The mice were observed one week after the injection and survivors were regarded as completely cured. […]

Escherichia coli c 11 [4] = experiment: Optimal dose of lactoferrin with cefaclor in E. coli infected mice (Example 6); assay type: in vivo; details: Lactoferrin dose 0.000 (cefaclor alone)
Experimental: Example 6-Optimal dose of lactoferrin was studied using mice strain ddY (n=6), four weeks old. The mice were intraperitoneally infected with Escherichia coli c 11 at a dose of 1 x 10^6 cells per mouse, and they were treated once orally with a mixture of lactoferrin and cefaclor one hour after the injection.

Escherichia coli c 11 [5] = experiment: Timing of lactoferrin administration with cefaclor in E. coli infected mice (Example 7); assay type: in vivo; details: control (no lactoferrin)
Excerpt: Example 7-The timing of lactoferrin administration is very important not only from a clinical point of view, but also from an economical point of view, since it indicates whether or not the treatment with lactoferrin is prophylactic, or curative, or both. The timing was studied using the same model as described in Example 6. Cefaclor was orally given one hour after injection of the bacteria. […]

[6] = Serum concentrations of cephalosporins with or without lactoferrin, bioassay with Bacillus subtilis (Experimental Example 2)
Experimental: Experimental Example 2-The effect of lactoferrin on intestinal absorption of cephalosporin antibiotics was studied using male ddY mice (n=6), five weeks old.
The cephalosporin antibiotics used were cephalexin, cefixime, cefaclor and cefroxazine, and the serum , concentrations were determined by bioassay using Bacillus subtilis. The doses of the antibiotics and lactoferrin were 0.5 mg per mouse of each.

[7] = agent alone (Lactoferrin -), oral, one hour after infection
[8] = agent with Lactoferrin + (0.5 mg/mouse oral, simultaneous)
[9] = antibiotic alone (Lactoferrin -), oral one hour after infection
[10] = antibiotic with Lactoferrin + (0.5 mg/mouse, oral, simultaneous)
[11] = antibiotic with Lactoferrin + (bovine milk lactoferrin 1 mg/mouse, oral, simultaneous)
[12] = mice, oral, lactoferrin simultaneously, blood withdrawn periodically

| Molecule | ED50 (Escherichia coli c 11 [1]; [7]) | ED50 (Escherichia coli c 11 [1]; [8]) | ED50 (Proteus vulgaris OX.8; [9]) | ED50 (Proteus vulgaris OX.8; [10]) | simultaneous administration with lactoferrin reduced the ED50s to (Proteus vulgaris OX.8) | ED50 [3, 9] | ED50 [3, 11] | ED50s reduced by simultaneous administration of lactoferrin to [3] | further results |
| --- | --- | --- | --- | --- | --- | --- | --- | --- | --- |
| O=C(N[C@H](CO)[C@H](O)c1ccc([N+](=O)[O-])cc1)C(Cl)Cl [chloramphenicol] | 5.11 mg/mouse | 1.94 mg/mouse |  |  |  |  |  |  | potentiation of efficacy of the chemotherapy by lactoferrin (Escherichia coli c 11 [1]): potentiated the efficacy |
| CC1(C)S[C@@H]2[C@H](NC(=O)[C@H](N)c3ccccc3)C(=O)N2[C@H]1C(=O)O [ampicillin] |  |  | 0.300 mg/mouse | 0.148 mg/mouse | 1/2 |  |  |  | colony quantity, Lactoferrin (-) ([2]; ampicillin 0.01 mg/mouse): 100,704 CFU/kidney; colony quantity, Lactoferrin (+) ([2]; ampicillin 0.01 mg/mouse with lactoferrin 1 mg per mouse): 58 CFU/kidney; colony count ratio, lactoferrin (+) to (-) ([2]; ampicillin 0.01 mg/mouse): 1/1736; colony quantity, Lactoferrin (-) ([2]; ampicillin 0.1 mg/mouse): 63,216 CFU/kidney; colony quantity, Lactoferrin (+) ([2]; ampicillin 0.1 mg/mouse with lactoferrin 1 mg per mouse): 36 CFU/kidney; colony count ratio, lactoferrin (+) to (-) ([2]; ampicillin 0.1 mg/mouse): 1/1756; colony quantity, Lactoferrin (-) ([2]; ampicillin 1.0 mg/mouse oral twice daily for two days, ICR mice, kidneys on day 3): 88 CFU/kidney; colony quantity, Lactoferrin (+) ([2]; ampicillin 1.0 mg/mouse with lactoferrin 1 mg per mouse): 0 CFU/kidney; colony count ratio, lactoferrin (+) to (-) ([2]; ampicillin 1.0 mg/mouse): <1/88 |
| CC[C@H]1OC(=O)[C@H](C)[C@@H](O[C@H]2C[C@@](C)(OC)[C@@H](O)[C@H](C)O2)[C@H](C)[C@@H](O[C@@H]2O[C@H](C)C[C@H](N(C)C)[C@H]2O)[C@](C)(O)C[C@@H](C)C(=O)[C@H](C)[C@@H](O)[C@]1(C)O [erythromycin] |  |  |  |  |  |  |  |  | potentiation of efficacy of the chemotherapy by lactoferrin (Escherichia coli c 11 [1]): potentiated the efficacy |
| N[C@@H](C(=O)N[C@@H]1C(=O)N2C(C(=O)O)=C(Cl)CS[C@H]12)c1ccccc1 [cefaclor] |  |  | 1.790 mg/mouse | 0.058 mg/mouse | 1/3 | 0.75 mg/mouse | 0.38 mg/mouse | 1/2 | ED50 (Escherichia coli c 11 [4]): 1.510 mg/mouse; ED50 (Escherichia coli c 11 [5]): 1.846 mg/mouse; blood levels of the antibiotics with versus without lactoferrin [6, 12]: virtually the same |
| CN(C)c1ccc(O)c2c1C[C@H]1C[C@H]3[C@H](N(C)C)C(O)=C(C(N)=O)C(=O)[C@@]3(O)C(O)=C1C2=O [minocycline] | 1.859 mg/mouse | 0.631 mg/mouse |  |  |  |  |  |  |  |
| CC1COc2c(N3CCN(C)CC3)c(F)cc3c(=O)c(C(=O)O)cn1c23 (stereo not shown) [ofloxacin] | 0.231 mg/mouse | 0.251 mg/mouse |  |  |  |  |  |  |  |
| CC1=C(C(=O)O)N2C(=O)[C@@H](NC(=O)[C@H](N)c3ccccc3)[C@H]2SC1 [cefalexin] |  |  | 0.402 mg/mouse | 0.185 mg/mouse | 1/2 | 8.54 mg/mouse | 1.42 mg/mouse | 1/4 | blood levels of the antibiotics with versus without lactoferrin ([6]; mouse, in vivo, po): virtually the same |
| gentamicin | 0.608 mg/mouse | 0.610 mg/mouse |  |  |  |  |  |  |  |
| NC1CCN(c2nc3c(cc2F)c(=O)c(C(=O)O)cn3-c2ccc(F)cc2F)C1 (stereo not shown) [tosfloxacin] | 0.013 mg/mouse | 0.009 mg/mouse |  |  |  |  |  |  |  |
| COC1=C(C(=O)O)N2C(=O)[C@@H](NC(=O)[C@H](N)C3=CCC=CC3)[C@H]2SC1 [cefroxadine] |  |  | 0.606 mg/mouse | 0.312 mg/mouse |  | 1.27 mg/mouse | 0.42 mg/mouse | 1/3 | blood levels of the antibiotics with versus without lactoferrin [6, 12]: virtually the same |
| C=CC1=C(C(=O)O)N2C(=O)[C@@H](NC(=O)/C(=N\OCC(=O)O)c3csc(N)n3)[C@H]2SC1 [cefixime] |  |  | 0.519 mg/mouse | 0.177 mg/mouse | 1/3 | 1.03 mg/mouse | 0.23 mg/mouse | 1/4 | blood levels of the antibiotics with versus without lactoferrin [6, 12]: virtually the same |
| O=C(O)c1cn(C2CC2)c2cc(N3CCNCC3)c(F)cc2c1=O [ciprofloxacin] | 0.200 mg/mouse | 0.214 mg/mouse |  |  |  |  |  |  |  |
